Data taken from PubChem BioAssay AID1259407 (Chemical Carcinogenesis Research Information System (CCRIS), 2018).
The source made the active and inactive calls. How the calls were made is not given here.

Test system: CCRIS mutagenicity, Ames/micronucleus/aberration tests
Assay: CCRIS mutagenicity studies

Measured: mutagenic call

C1O[C@@H]1[C@@H]1CO1
active: Test System: AMES SALMONELLA TYPHIMURIUM, Strain/Indicator: TA1535, Metabolic Activation: RAT, LIVER, S-9, Method: PREINCUBATION active; positive | Test System: AMES SALMONELLA TYPHIMURIUM, Strain/Indicator: TA1535, Metabolic Activation: RAT, LIVER, S-9, Method: STANDARD PLATE active; positive
inactive: Test System: AMES SALMONELLA TYPHIMURIUM, Strain/Indicator: TA1537, Metabolic Activation: HAMSTER, LIVER, S-9, AROCLOR 1254, Method: PREINCUBATION inactive; negative | Test System: AMES SALMONELLA TYPHIMURIUM, Strain/Indicator: TA1537, Metabolic Activation: HAMSTER, LIVER, S-9, AROCLOR 1254, Method: STANDARD PLATE inactive; negative | Test System: AMES SALMONELLA TYPHIMURIUM, Strain/Indicator: TA1537, Metabolic Activation: HAMSTER, LIVER, S-9, Method: PREINCUBATION inactive; negative | Test System: AMES SALMONELLA TYPHIMURIUM, Strain/Indicator: TA1537, Metabolic Activation: HAMSTER, LIVER, S-9, Method: STANDARD PLATE inactive; negative | Test System: AMES SALMONELLA TYPHIMURIUM, Strain/Indicator: TA1537, Metabolic Activation: MOUSE, LIVER, S-9, AROCLOR 1254, Method: PREINCUBATION inactive; negative | Test System: AMES SALMONELLA TYPHIMURIUM, Strain/Indicator: TA1537, Metabolic Activation: MOUSE, LIVER, S-9, AROCLOR 1254, Method: STANDARD PLATE inactive; negative | Test System: AMES SALMONELLA TYPHIMURIUM, Strain/Indicator: TA1537, Metabolic Activation: MOUSE, LIVER, S-9, Method: PREINCUBATION inactive; negative | Test System: AMES SALMONELLA TYPHIMURIUM, Strain/Indicator: TA1537, Metabolic Activation: MOUSE, LIVER, S-9, Method: STANDARD PLATE inactive; negative | Test System: AMES SALMONELLA TYPHIMURIUM, Strain/Indicator: TA1537, Metabolic Activation: NONE, Method: PREINCUBATION inactive; negative | Test System: AMES SALMONELLA TYPHIMURIUM, Strain/Indicator: TA1537, Metabolic Activation: NONE, Method: STANDARD PLATE inactive; negative | Test System: AMES SALMONELLA TYPHIMURIUM, Strain/Indicator: TA1537, Metabolic Activation: RAT, LIVER, S-9, AROCLOR 1254, Method: PREINCUBATION inactive; negative | Test System: AMES SALMONELLA TYPHIMURIUM, Strain/Indicator: TA1537, Metabolic Activation: RAT, LIVER, S-9, Method: PREINCUBATION inactive; negative | Test System: AMES SALMONELLA TYPHIMURIUM, Strain/Indicator: TA1537, Metabolic Activation: RAT, LIVER, S-9, Method: STANDARD PLATE inactive; negative | Test System: AMES SALMONELLA TYPHIMURIUM, Strain/Indicator: TA1538, Metabolic Activation: HAMSTER, LIVER, S-9, AROCLOR 1254, Method: PREINCUBATION inactive; negative | Test System: AMES SALMONELLA TYPHIMURIUM, Strain/Indicator: TA1538, Metabolic Activation: HAMSTER, LIVER, S-9, AROCLOR 1254, Method: STANDARD PLATE inactive; negative | Test System: AMES SALMONELLA TYPHIMURIUM, Strain/Indicator: TA1538, Metabolic Activation: HAMSTER, LIVER, S-9, Method: PREINCUBATION inactive; negative | Test System: AMES SALMONELLA TYPHIMURIUM, Strain/Indicator: TA1538, Metabolic Activation: HAMSTER, LIVER, S-9, Method: STANDARD PLATE inactive; negative | Test System: AMES SALMONELLA TYPHIMURIUM, Strain/Indicator: TA1538, Metabolic Activation: MOUSE, LIVER, S-9, AROCLOR 1254, Method: PREINCUBATION inactive; negative | Test System: AMES SALMONELLA TYPHIMURIUM, Strain/Indicator: TA1538, Metabolic Activation: MOUSE, LIVER, S-9, AROCLOR 1254, Method: STANDARD PLATE inactive; negative | Test System: AMES SALMONELLA TYPHIMURIUM, Strain/Indicator: TA1538, Metabolic Activation: MOUSE, LIVER, S-9, Method: PREINCUBATION inactive; negative | Test System: AMES SALMONELLA TYPHIMURIUM, Strain/Indicator: TA1538, Metabolic Activation: MOUSE, LIVER, S-9, Method: STANDARD PLATE inactive; negative | Test System: AMES SALMONELLA TYPHIMURIUM, Strain/Indicator: TA1538, Metabolic Activation: NONE, Method: PREINCUBATION inactive; negative | Test System: AMES SALMONELLA TYPHIMURIUM, Strain/Indicator: TA1538, Metabolic Activation: NONE, Method: STANDARD PLATE inactive; negative | Test System: AMES SALMONELLA TYPHIMURIUM, Strain/Indicator: TA1538, Metabolic Activation: RAT, LIVER, S-9, AROCLOR 1254, Method: PREINCUBATION inactive; negative | Test System: AMES SALMONELLA TYPHIMURIUM, Strain/Indicator: TA1538, Metabolic Activation: RAT, LIVER, S-9, Method: PREINCUBATION inactive; negative | Test System: AMES SALMONELLA TYPHIMURIUM, Strain/Indicator: TA1538, Metabolic Activation: RAT, LIVER, S-9, Method: STANDARD PLATE inactive; negative | Test System: E. COLI, Strain/Indicator: WP2 UVRA, Metabolic Activation: HAMSTER, LIVER, S-9, AROCLOR 1254, Method: STANDARD PLATE inactive; negative | Test System: E. COLI, Strain/Indicator: WP2 UVRA, Metabolic Activation: HAMSTER, LIVER, S-9, Method: PREINCUBATION inactive; negative | Test System: E. COLI, Strain/Indicator: WP2 UVRA, Metabolic Activation: MOUSE, LIVER, S-9, AROCLOR 1254, Method: STANDARD PLATE inactive; negative | Test System: E. COLI, Strain/Indicator: WP2 UVRA, Metabolic Activation: MOUSE, LIVER, S-9, Method: STANDARD PLATE inactive; negative | Test System: E. COLI, Strain/Indicator: WP2 UVRA, Metabolic Activation: NONE, Method: STANDARD PLATE inactive; negative | Test System: E. COLI, Strain/Indicator: WP2 UVRA, Metabolic Activation: RAT, LIVER, S-9, AROCLOR 1254, Method: PREINCUBATION inactive; negative | Test System: E. COLI, Strain/Indicator: WP2 UVRA, Metabolic Activation: RAT, LIVER, S-9, Method: PREINCUBATION inactive; negative | Test System: E. COLI, Strain/Indicator: WP2 UVRA, Metabolic Activation: RAT, LIVER, S-9, Method: STANDARD PLATE inactive; negative
